Data reported in ChEMBL document CHEMBL6127027, “Conserved gatekeeper methionine regulates the binding and access of kinase inhibitors to ATP sites of MAP2K1, 4, and 7: Clues for developing selective inhibitors” (Bioorg Med Chem Lett, 2024).
The source made the active and inactive calls. No cut-off for these calls is given here.

How the values were obtained:
[1] = molecular target: T1, Dual specificity mitogen-activated protein kinase kinase 4 (Homo sapiens, UniProt P45985); assay: Inhibition of MAP2K4 (unknown origin)
T1 sequence (P45985 whole entry): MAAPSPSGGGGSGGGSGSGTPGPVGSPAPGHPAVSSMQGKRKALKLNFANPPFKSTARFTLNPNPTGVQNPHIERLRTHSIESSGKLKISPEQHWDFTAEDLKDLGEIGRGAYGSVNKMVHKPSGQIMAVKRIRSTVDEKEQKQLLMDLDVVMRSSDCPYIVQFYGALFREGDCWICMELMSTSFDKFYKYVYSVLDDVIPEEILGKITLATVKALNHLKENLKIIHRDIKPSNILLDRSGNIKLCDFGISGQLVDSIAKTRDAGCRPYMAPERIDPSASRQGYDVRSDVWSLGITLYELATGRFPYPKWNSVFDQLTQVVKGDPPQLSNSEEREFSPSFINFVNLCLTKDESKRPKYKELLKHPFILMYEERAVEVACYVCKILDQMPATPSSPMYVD

[2] = molecular target: T2, Dual specificity mitogen-activated protein kinase kinase 4 (Homo sapiens) (UniProt P45985); assay: Inhibition of MAP2K4 (unknown origin) at 100 uM
T2 sequence (whole entry): T1 sequence (P45985 whole entry)

[3] = molecular target: T3, Dual specificity mitogen-activated protein kinase kinase 7 (Homo sapiens) (UniProt O14733); assay: Inhibition of MAP2K7 (unknown origin) at 100 uM relative to control
T3 sequence (whole entry): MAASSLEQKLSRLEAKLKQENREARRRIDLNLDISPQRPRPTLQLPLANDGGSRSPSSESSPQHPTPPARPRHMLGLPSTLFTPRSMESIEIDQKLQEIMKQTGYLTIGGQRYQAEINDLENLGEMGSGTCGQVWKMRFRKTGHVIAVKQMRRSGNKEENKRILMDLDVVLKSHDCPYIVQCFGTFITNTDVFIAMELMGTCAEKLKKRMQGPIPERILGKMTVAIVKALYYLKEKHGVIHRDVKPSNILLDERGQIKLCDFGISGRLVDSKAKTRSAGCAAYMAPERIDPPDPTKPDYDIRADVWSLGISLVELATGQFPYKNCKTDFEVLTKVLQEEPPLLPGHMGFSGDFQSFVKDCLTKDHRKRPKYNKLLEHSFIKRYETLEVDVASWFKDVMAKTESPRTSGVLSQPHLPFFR

[4] = molecular target: Dual specificity mitogen-activated protein kinase kinase 1 (Homo sapiens, UniProt Q02750); assay: Inhibition of MAP2K1 (unknown origin)
Dual specificity mitogen-activated protein kinase kinase 1, sequence (Q02750 whole entry): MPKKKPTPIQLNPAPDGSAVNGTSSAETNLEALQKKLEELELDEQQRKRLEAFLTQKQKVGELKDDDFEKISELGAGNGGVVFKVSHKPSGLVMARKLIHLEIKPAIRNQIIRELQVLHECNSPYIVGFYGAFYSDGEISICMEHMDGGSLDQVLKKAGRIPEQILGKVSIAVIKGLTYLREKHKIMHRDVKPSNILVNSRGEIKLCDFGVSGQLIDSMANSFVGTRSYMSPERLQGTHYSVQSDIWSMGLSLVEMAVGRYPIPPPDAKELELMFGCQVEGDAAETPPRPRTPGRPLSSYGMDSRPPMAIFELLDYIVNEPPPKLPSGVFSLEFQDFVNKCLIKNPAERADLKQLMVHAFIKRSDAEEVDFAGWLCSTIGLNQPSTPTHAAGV

SMILES | IC50 [1] [µM] | inhibition [2] | inhibition [3] [%] | IC50 [4] [µM]
COc1cc(O)c2c(c1)/C=C/C[C@H](O)[C@H](O)C(=O)/C=C\C[C@H](C)OC2=O | 4.7 | – | – | –
COc1cc(O)c2c(c1)/C=C/C[C@H](O)[C@H](O)C(=O)CCC[C@H](C)OC2=O | – | inactive | 25 | 5.2
